# Assay results taken from patent US6204284A, “Use of 1-(substitutedphenyl)-3-azabicyclo[3.1.0]hexanes for the treatment of chemical dependencies” (priority 1995, dated 2001).
# pIC50: −log10 of the molar value. Where “and” joins values, the source holds several entries; their conditions need not be identical. Identical values can stand only once. Entries after “also recorded” stand apart in the source; their conditions may differ.
# How the values were obtained:
# [1] = test system: Norepinephrine (NE) reuptake in rat brain synaptosomes; assay: Inhibition of rat synaptosomal uptake of 3H-norepinephrine; assay type: biochemical; details: rat diencephalic-mid brain crude synaptosomes; 3H-NE 2×10^-8 M; Hill analysis
# From the text: (§1) Male Wistar rats weighing approximately 180-200 g are decapitated and their brains rapidly removed and dissected according to the method of Glowinski and Iversen. Glowinski, J. and Iversen, L. L., Regional studies of catecholamines in the rat brain I. The disposition of 3H-norepinephrine, 3H-dopamine and 3H-DOPA in various regions of the brain. J. Neurochem. 13:655-669, 1966.
# (§2) Striatal tissues are pooled from three rat brains for the uptake of 3H-dopamine (3H-DA) and diencephalic-mid brain areas were used for the uptake of 3H-norepinephrine (3H-NE) and 3H-serotonin (3H-5HT). The tissues are immediately weighed and homogenized with a teflon-glass pestle homogenizer in 10 volumes of ice cold 0.32 M sucrose. The homogenates are centrifuged at 4° C. at 900×g for 10 minutes to remove nuclear particles and cellular debris. The supernatants are carefully withdrawn and transferred into clean test tubes kept in ice. Aliquots of these preparations containing crude synaptic nerve endings are used in subsequent uptake studies.
# (§3) Amine uptake in crude synaptosomes is determined by a method essentially the same as that described by Snyder and Coyle, Snyder, S. H. and Coyle, J. T. Regional differences in 3H-norepinephrine and 3H-dopamine uptake into rat brain homogenates. J. Pharmacol. Exp. Ther. 165:78-86, 1969. Briefly, a 0.1 ml aliquot of the above tissue preparation is added to test tubes containing 3.7 ml of Krebs-Ringer phosphate buffer pH 7.4 with glucose (2 mg/ml), calcium chloride 0.024%, ascorbic acid (0.2 mg/ml) and nialamide (1.24×10^-5M). 1-(3,4-Dichlorophenyl)-3-azabicyclo[3.1.0]hexane hydrochloride at varying concentrations (0.01-2.5 μM) is added in a 0.1 ml volume. The incubation mixtures are agitated at 37° C. for 10 minutes under an atmosphere of 95% oxygen and 5% CO2 in a Dubnoff metabolic shaker to ensure irreversible inhibition of monoamine oxidase (MAO). After this initial pre-incubation period, the tubes are returned to the ice bath. 3H-DA, 3H-NE or 3H-5HT is added in a 0.1 ml volume to give a final concentration of labeled amine of 2×10^-8 M, and the incubation at 37° C. is continued for an additional 4 min. A set of tubes serving as control (uptake at 0° C.) is left in an ice bath. After the final incubation period, the samples are cooled in ice and then centrifuged at 4° C. at 10,000×g. The supernatant fluid is gently poured off from each tube. The surface of the pellet of each sample is washed with 5 ml of ice cold 0.9% sodium chloride which is then aspirated off without disturbing the pellet. The pellet is resuspended in a cintillation fluid ad radioactivity was determined. Protein content in the tissue samples is determined by the method of Lowry et al. Lowry, O. H., Rosebrough, N. J., Farr, A. L. and Randall, R. J. Protein measurement with the folin reagent. J. Biol. Chem. 193:265, 1951. The concentration of drug which inhibits the uptake of the labeled amine by 50% is determined by Hill analysis of the data.
# [2] = test system: Male Wistar rats; assay: Free-choice ethanol (6% v/v) vs tap water drinking, Part I; assay type: in vivo, rat; details: for Ethanol Intake / Ethanol Preference / Food Consumption / Total Fluid Intake: mean ± S.D.
# Method: Male Wistar rats are presented with an everyday free-choice between a 6% (v/v) ethanol solution and tap water. Following a seven-day baseline period, which establishes a pattern of stable drinking, only those animals whose consumption is greater than 50% of their total fluid intake are given intraperitoneal injections of three drugs. In part I citalopram (positive control) a neuronal serotonin uptake inhibitor at a dose of 30 mg/kg, […], and 1-(3,4-dichlorophenyl)-3-azabicyclo[3.1.0]hexane hydrochloride, also a serotonin uptake inhibitor, at doses of 5, 10 and 20 mg/kg are given by intraperitoneal injection for seven days. In part II, animals are given intraperitoneal injections of diazepam at a dose of 10 mg/kg and again the positive control used is citalopram at 30 mg/kg. Treatment period for part II also is over a seven-day period. Following the seven-day treatment period, a post-treatment period which lasted for an additional seven days is conducted where the animals are presented with a free choice between ethanol and water in order to determine the rate of recovery of ethanol drinking. During baseline, drug treatment and post-treatment periods, ethanol consumption by the rats is calculated in terms of daily ethanol preference ratio (volume of ethanol per volume of total daily fluid intake) and in terms of daily absolute of ethanol ingested (g/kg body weight).
# Two hundred (200) drug-naive male Wistar rats obtained from the Canadian Breeding Farm Laboratories in Charles River Canada are used. All animals weigh between 180-200 g at the beginning of the experiment.
# All animals are individually housed in stainless steel cages, in a room regulated for constant temperature, humidity and a 12-hour light/dark cycle (7:00 a.m.-7:00 p.m.). Each cage is equipped with two calibrated glass Richter tubes to deliver the fluids (ethanol and water) to the animals. All animals are presented with a free choice between ethanol and tap water throughout the experiment. The drinking vessels are randomly reversed in order to avoid bias generated by a position preference in the animals. In addition, Purina Rat Chow is made available throughout the experiment on an ad libitum basis.
# At approximately the same time every day, 1300 h, the volume in mls of ethanol and tap water consumed by each animal is recorded. All tubes are then removed from the cages, rinsed and refilled with the appropriate fluids, i.e., ethanol solution and tap water. Also, all animals are weighed and their corresponding body weights recorded. At this time, additional food is provided.
# Drugs used in part I are dissolved in Ringers solution to form the required doses. Drugs used in part II are suspended in a vehicle which consists of a 2% pre-boiled starch solution containing 5% polyethylene glycol 400 and tween 80 (1 drop/10 ml vehicle). All drugs are administered intraperitoneally according to the schedule (see Treatment period).
# Group 2--citalopram 30 mg/kg (n=10)
# Group 3--1-(3,4-dichlorophenyl)-3-azabicyclo[3.1.0]hexane hydrochloride 5 mg/kg (n=10)
# Group 4--1-(3,4-dichlorophenyl)-3-azabicyclo[3.1.0]hexane hydrochloride 10 mg/kg (n=10)
# Group 5--1-(3,4-dichlorophenyl)-3-azabicyclo[3.1.0]hexane hydrochloride 20 mg/kg (n=10)
# Post-treatment period:--Upon cessation of the drug treatment period, the animals are presented with a free choice between 6% ethanol and tap water for an additional 7 days in order to determine the rate of recovery of ethanol drinking.
# [3] = test system: Serotonin (5-HT) reuptake in rat brain synaptosomes; assay: Inhibition of rat synaptosomal uptake of 3H-serotonin; assay type: biochemical; details: rat diencephalic-mid brain crude synaptosomes; 3H-5HT 2×10^-8 M; Hill analysis
# From the text: as §1, §2, §3
# [4] = test system: Dopamine (DA) reuptake in rat brain synaptosomes; assay: Inhibition of rat synaptosomal uptake of 3H-dopamine; assay type: biochemical; details: rat striatal crude synaptosomes; 3H-DA 2×10^-8 M; Hill analysis
# From the text: as §1
# Striatal tissues are pooled from three rat brains for the uptake of 3H-dopamine (3H-DA) and diencephalic-mid brain areas were used for the uptake of 3H-norepinephrine (3H-NE) and 3H-serotonin (3H-5HT). The tissues are immediately weighed and homogenized with a teflon-glass pestle homogenizer in 10 volumes of ice cold 0.32 M sucrose. […]
# Amine uptake in crude synaptosomes is determined by a method essentially the same as that described by Snyder and Coyle, Snyder, S. H. and Coyle, J. T. Regional differences in 3H-norepinephrine and 3H-dopamine uptake into rat brain homogenates. […] The pellet is resuspended in a cintillation fluid ad radioactivity was determined. Protein content in the tissue samples is determined by the method of Lowry et al. Lowry, O. H., Rosebrough, N. J., Farr, A. L. and Randall, R. J. Protein measurement with the folin reagent. […] The concentration of drug which inhibits the uptake of the labeled amine by 50% is determined by Hill analysis of the data.
# [5] = 5 mg/kg i.p. 7 days, Baseline period
# [6] = 5 mg/kg i.p. 7 days, Post-Treatment period
# [7] = 10 mg/kg i.p. 7 days, Baseline period
# [8] = 10 mg/kg i.p. 7 days, Post-Treatment period
# [9] = 20 mg/kg i.p. 7 days, Baseline period
# [10] = 20 mg/kg i.p. 7 days, Baseline period, hydrochloride, 20 mg/kg
# [11] = 20 mg/kg i.p. 7 days, Post-Treatment period
# [12] = 20 mg/kg i.p. 7 days, Post-Treatment period, hydrochloride, 20 mg/kg
structure (smiles),measurement,setting,value
"Cl.Clc1ccc(C23CNCC2C3)cc1Cl (centres unmarked) [1-(3,4-dichlorophenyl)-3-azabicyclo[3.1.0]hexane hydrochloride]",pIC50,[1],[…]
same,Ethanol Intake,[2]; [5],5.02 ± 1.16 g/kg body weight
same,Ethanol Preference,[2]; [5],83.67 ± 14.58%
same,Food Consumption,[2]; [5],19.74 ± 1.65 g/day
same,Total Fluid Intake,[2]; [5],5.1937 ± 0.5254 mL/h/kg
same,Ethanol Intake,[2]; [6],4.86 ± 1.78 g/kg body weight
same,Ethanol Preference,[2]; [6],82.39 ± 20.87%
same,Food Consumption,[2]; [6],19.50 ± 1.41 g/day
same,Total Fluid Intake,[2]; [6],5.025 ± 0.9108 mL/h/kg
same,Ethanol Intake,[2]; [7],4.55 ± 0.90 g/kg body weight
same,Ethanol Preference,[2]; [7],75.05 ± 16.53%
same,Food Consumption,[2]; [7],20.43 ± 1.55 g/day
same,Total Fluid Intake,[2]; [7],5.3292 ± 0.6617 mL/h/kg
same,Ethanol Intake,[2]; [8],2.99 ± 1.42 g/kg body weight
same,Ethanol Preference,[2]; [8],55.90 ± 28.51%
same,Food Consumption,[2]; [8],21.32 ± 1.96 g/day
same,Total Fluid Intake,[2]; [8],4.8087 ± 0.6483 mL/h/kg
same,Food Consumption,[2]; [9],20.28 ± 1.12 g/day
same,Total Fluid Intake,[2]; [9],4.84 ± 0.4304 mL/h/kg
same,Ethanol Intake,[2]; [10],3.79 g/kg body weight and 3.80 ± 1.00 g/kg body weight
same,Ethanol Preference,[2]; [10],67.94% and 67.94 ± 17.05%
same,Food Consumption,[2]; [11],20.88 ± 2.08 g/day
same,Total Fluid Intake,[2]; [11],4.4675 ± 0.4983 mL/h/kg
same,Ethanol Intake,[2]; [12],3.04 g/kg body weight and 3.04 ± 1.34 g/kg body weight
same,Ethanol Preference,[2]; [12],58.66% and 58.66 ± 23.98%
same,Ethanol Preference,"[2]; 20 mg/kg i.p. 7 days, Treatment period, hydrochloride, 20 mg/kg",25.55% and 25.55 ± 17.28%
same,Voluntary ethanol consumption (overall statement),"[2]; rats, 5, 10 and 20 mg/kg i.p. 7 days, hydrochloride",reduces ethanol intake and ethanol preferences; also recorded: significant effect in attenuating voluntary ethanol consumption
